Test system: HBV
Assay: HBV-DNA Antiviral Assay Using HepG2.117 Cells (intracellular HBV DNA by qPCR)
Format: cell-based, hepatitis B virus (genotype D)
Settings: Hepatitis B virus, HepG2.117
Outline: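 HepG2.117 cells (genotype D HBV, Tet-off) were induced by doxycycline withdrawal and treated for 3 days with 9 concentrations in 4-fold dilution, 2% DMSO final. Intracellular HBV DNA was measured by qPCR against a standard curve, with ATPlite viability read in parallel. EC50, EC90 and CC50 came from fits against the DMSO control.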

Structure (SMILES) | EC50
O=C(NCc1ccccc1-c1ccccn1)c1c2n(c(=O)n1-c1ccc(OCC(F)(F)F)cc1)CCN(C(=O)c1ccc(Br)c(Cl)c1)C2 [Example 370, 7-(4-bromo-3-chloro-benzoyl)-3-oxo-N-[[2-(2-pyridyl)phenyl]methyl]-2-[4-(2,2,2-trifluoroethoxy)phenyl]-6,8-dihydro-5H-imidazo[1,5-a]pyrazine-1-carboxamide] | < 100 nM
O=C(NCc1ccccc1)c1c2n(c(=O)n1-c1ccc(Cl)cc1)CCN(C(=O)c1ccc(Br)c(Cl)c1)C2 [Example 26, N-benzyl-7-(4-bromo-3-chloro-benzoyl)-2-(4-chlorophenyl)-3-oxo-6,8-dihydro-5H-imidazo[1,5-a]pyrazine-1-carboxamide] | 500 to 5000 nM
COc1ccc(-n2c(C(=O)NCc3ccc(C(C)C)cc3)c3n(c2=O)CCN(C(=O)c2ccc(Br)c(Cl)c2)C3)cc1 [Example 142, 7-(4-bromo-3-chloro-benzoyl)-N-[(4-isopropylphenyl)methyl]-2-(4-methoxyphenyl)-3-oxo-6,8-dihydro-5H-imidazo[1,5-a]pyrazine-1-carboxamide] | 100 to 500 nM
O=C(NCc1ccccc1)c1c2n(c(=O)n1-c1ccc(F)cc1)CCN(C(=O)c1ccc(Br)c(Cl)c1)C2 [Example 22, N-benzyl-7-(4-bromo-3-chloro-benzoyl)-2-(4-fluorophenyl)-3-oxo-6,8-dihydro-5H-imidazo[1,5-a]pyrazine-1-carboxamide] | 500 to 5000 nM
COc1ccc(-n2c(C(=O)NCc3ccccc3)c3n(c2=O)CCN(C(=O)c2ccc(Cl)c(Cl)c2)C3)c(Cl)c1 [Example 59, N-benzyl-2-(2-chloro-4-methoxy-phenyl)-7-(3,4-dichlorobenzoyl)-3-oxo-6,8-dihydro-5H-imidazo[1,5-a]pyrazine-1-carboxamide] | 500 to 5000 nM
C[C@H](NC(=O)c1c2n(c(=O)n1-c1ccc(OCC(F)(F)F)cc1)CCN(C(=O)c1ccc(Br)c(Cl)c1)C2)c1ccc(OC(C)(C)C(N)=O)cc1F (stereo in doubt) [Example 336, 7-(4-bromo-3-chloro-benzoyl)-3-oxo-N-[rac-(1S)-1-[4-(2-amino-1,1-dimethyl-2-oxo-ethoxy)-2-fluoro-phenyl]ethyl]-2-[4-(2,2,2-trifluoroethoxy)phenyl]-6,8-dihydro-5H-imidazo[1,5-a]pyrazine-1-carboxamide] | 100 to 500 nM
COc1ccc(-n2c(C(=O)NC(c3ccccc3)C3CC3)c3n(c2=O)CCN(C(=O)c2ccc(Br)c(Cl)c2)C3)cc1 (racemic) [Example 176, 7-(4-bromo-3-chloro-benzoyl)-2-(4-methoxyphenyl)-3-oxo-N-[rac-(S)-cyclopropyl(phenyl)methyl]-6,8-dihydro-5H-imidazo[1,5-a]pyrazine-1-carboxamide] | 100 to 500 nM
COc1ccc(-n2c(C(=O)N[C@@H]3CCc4cc(OC)ccc43)c3n(c2=O)CCN(C(=O)c2ccc(Br)c(Cl)c2)C3)cc1 (stereo in doubt) [Example 99, 7-(4-bromo-3-chloro-benozyl)-2-(4-methoxyphenyl)-3-oxo-N-[rac-(1R)-5-methoxyindazin-1-yl]-6,8-dihydro-5H-imidazo[1,5-a]pyrazine-1-carboxamide] | 500 to 5000 nM
COc1ccc(-n2c(C(=O)NCc3cccc(C#N)c3)c3n(c2=O)CCN(C(=O)c2ccc(Br)c(Cl)c2)C3)cc1 [Example 62, 7-(4-bromo-3-chloro-benzoyl)-N-[(3-cyanophenyl)methyl]-2-(4-methoxyphenyl)-3-oxo-6,8-dihydro-5H-imidazo[1,5-a]pyrazine-1-carboxamide] | 500 to 5000 nM
COc1ccc(-n2c(C(=O)NCc3ccccc3F)c3n(c2=O)CCN(C(=O)c2ccc(Br)c(Cl)c2)C3)cc1 [Example 181, 7-(4-bromo-3-chloro-benzoyl)-N-[(2-fluorophenyl)methyl]-2-(4-methoxyphenyl)-3-oxo-6,8-dihydro-5H-imidazo[1,5-a]pyrazine-1-carboxamide] | 100 to 500 nM
N#Cc1ccc(-n2c(C(=O)NCc3ccccc3)c3n(c2=O)CCN(C(=O)c2ccc(Br)c(Cl)c2)C3)c(Cl)c1 [Example 351, N-benzyl-7-(4-bromo-3-chloro-benzoyl)-2-(2-chloro-4-cyano-phenyl)-3-oxo-6,8-dihydro-5H-imidazo[1,5-a]pyrazine-1-carboxamide] | > 5000 nM
O=C(NCc1ccccc1)c1c2n(c(=O)n1-c1ccc(OC(F)(F)F)cc1)CCN(C(=O)c1ccc(Cl)c(Cl)c1)C2 [Example 131, N-benzyl-7-(3,4-dichlorobenzoyl)-3-oxo-2-[4-(trifluoromethoxy)phenyl]-6,8-dihydro-5H-imidazo[1,5-a]pyrazine-1-carboxamide] | > 5000 nM
O=C(NCc1ccccc1-c1ccncn1)c1c2n(c(=O)n1-c1ccc(OC3CC3)cc1)CCN(C(=O)c1ccc(Br)c(Cl)c1)C2 [Example 424, 7-(4-bromo-3-chloro-benzoyl)-2-[4-(cyclopropoxy)phenyl]-3-oxo-N-[(2-pyrimidin-4-ylphenyl)methyl]-6,8-dihydro-5H-imidazo[1,5-a]pyrazine-1-carboxamide] | < 100 nM
CC(NC(=O)c1c2n(c(=O)n1-c1ccc(OC3CC3)cc1)CCN(C(=O)c1ccc(Br)c(Cl)c1)C2)c1ccc(OCC(N)=O)cc1-n1cccn1 (racemic) [Example 379, 7-(4-bromo-3-chloro-benzoyl)-2-[4-(cyclopropoxy)phenyl]-3-oxo-N-[rac-(1R)-1-[4-(2-amino-2-oxo-ethoxy)-2-pyrazol-1-yl-phenyl]ethyl]-6,8-dihydro-5H-imidazo[1,5-a]pyrazine-1-carboxamide] | > 5000 nM
CC(C)Oc1ccc(-n2c(C(=O)N[C@@H](C)c3ccccc3)c3n(c2=O)CCN(C(=O)c2ccc(Cl)c(Cl)c2)C3)cc1 (stereo in doubt) [Example 129, 7-(3,4-dichlorobenzoyl)-2-(4-isopropoxyphenyl)-3-oxo-N-[rac-(1S)-1-phenylethyl]-6,8-dihydro-5H-imidazo[1,5-a]pyrazine-1-carboxamide] | 500 to 5000 nM
O=C(NCc1ccccc1)c1c2n(c(=O)n1-c1ccc3cn[nH]c3c1)CCN(C(=O)c1ccc(Br)c(Cl)c1)C2 [Example 408, N-benzyl-7-(4-bromo-3-chloro-benzoyl)-2-(1H-indazol-6-yl)-3-oxo-6,8-dihydro-5H-imidazo[1,5-a]pyrazine-1-carboxamide] | 100 to 500 nM
CC(C)(NC(=O)c1c2n(c(=O)n1-c1ccccc1)CCN(C(=O)c1ccc(Br)c(Cl)c1)C2)c1ccccc1 [Example 30, 7-(4-bromo-3-chloro-benzoyl)-N-(1-methyl-1-phenyl-ethyl)-3-oxo-2-phenyl-6,8-dihydro-5H-imidazo[1,5-a]pyrazine-1-carboxamide] | > 5000 nM
COc1ccc(-n2c(C(=O)N[C@H](c3ccccc3)C(F)(F)F)c3n(c2=O)CCN(C(=O)c2ccc(Br)c(Cl)c2)C3)cc1 (stereo in doubt) [Example 208, 7-(4-bromo-3-chloro-benzoyl)-2-(4-methoxyphenyl)-3-oxo-N-[rac-(1R)-2,2,2-trifluoro-1-phenyl-ethyl]-6,8-dihydro-5H-imidazo[1,5-a]pyrazine-1-carboxamide] | 100 to 500 nM
COc1ccc(-n2c(C(=O)N[C@@H](c3ccccc3)C(F)(F)F)c3n(c2=O)CCN(C(=O)c2ccc(Br)c(Cl)c2)C3)cc1 (stereo in doubt) [Example 209, 7-(4-bromo-3-chloro-benozyl)-2-(4-methoxyphenyl)-3-oxo-N-[rac-(1S)-2,2,2-trifluoro-1-phenyl-ethyl]-6,8-dihydro-5H-imidazo[1,5-a]pyrazine-1-carboxamide] | 100 to 500 nM
CC(C)Oc1ccc(-n2c(C(=O)NCc3ccccc3C(N)=O)c3n(c2=O)CCN(C(=O)c2ccc(Br)c(Cl)c2)C3)cc1 [Example 222, 7-(4-bromo-3-chloro-benozyl)-N-[(2-carbamoylphenyl)methyl]-2-(4-isopropoxyphenyl)-3-oxo-6,8-dihydro-5H-imidazo[1,5-a]pyrazine-1-carboxamide] | > 5000 nM
COc1ccc(-n2c(C(=O)NCc3ccccc3)c3n(c2=O)CCN(C(=O)c2ccc(Cl)c(Cl)c2)C3)c(F)c1 [Example 79, N-benzyl-7-(3,4-dichlorobenzoyl)-2-(2-fluoro-4-methoxy-phenyl)-3-oxo-6,8-dihydro-5H-imidazo[1,5-a]pyrazine-1-carboxamide] | 500 to 5000 nM
O=C(NCc1ccc(OC(F)(F)F)cc1F)c1c2n(c(=O)n1-c1ccc(OCC(F)(F)F)cc1)CCN(C(=O)c1ccc(Br)c(Cl)c1)C2 [Example 284, 7-(4-bromo-3-chloro-benzoyl)-N-[[2-fluoro-4-(trifluoromethoxy)phenyl]methyl]-3-oxo-2-[4-(2,2,2-trifluoroethoxy)phenyl]-6,8-dihydro-5H-imidazo[1,5-a]pyrazine-1-carboxamide] | 500 to 5000 nM
N#Cc1cc(C(=O)N2CCn3c(c(C(=O)NCc4ccccc4-c4ncccn4)n(-c4ccc(OC5CC5)cc4)c3=O)C2)ccc1Br [Example 432, 7-(4-bromo-3-cyano-benzoyl)-2-[4-(cyclopropoxy)phenyl]-3-oxo-N-[(2-pyrimidin-2-ylphenyl)methyl]-6,8-dihydro-5H-imidazo[1,5-a]pyrazine-1-carboxamide] | 100 to 500 nM
C[C@@H](NC(=O)c1c2n(c(=O)n1-c1ccc(OC3CC3)cc1)CCN(C(=O)c1ccc(Br)c(Cl)c1)C2)c1ccc(OC(C)(C)C(N)=O)cc1F (stereo in doubt) [Example 339, 7-(4-bromo-3-chloro-benzoyl)-2-[4-(cyclopropoxy)phenyl]-3-oxo-N-[rac-(1R)-1-[4-(2-amino-1,1-dimethyl-2-oxo-ethoxy)-2-fluoro-phenyl]ethyl]-6,8-dihydro-5H-imidazo[1,5-a]pyrazine-1-carboxamide] | 100 to 500 nM
CC(C)Oc1ccc(-n2c(C(=O)N[C@@H](C)c3ccccc3)c3n(c2=O)CCN(C(=O)c2ccc(Br)c(Cl)c2)C3)cc1 (racemic) [Example 119, 7-(4-bromo-3-chloro-benzoyl)-2-(4-isopropoxyphenyl)-3-oxo-N-[rac-(1S)-1-phenylethyl]-6,8-dihydro-5H-imidazo[1,5-a]pyrazine-1-carboxamide] | 100 to 500 nM
